Patent US12534748B2, “Engineered beta-subunit of tryptophan synthase for production of non-canonical amino acids” (California Institute of Technology, priority 2015, dated 2026)

Assays:
[1] = biological target: T1, Thermotoga maritima TrpB variant TmTrpB^triple (P19G, I69V, T292S), SEQ ID NO: 34 (Thermotoga maritima, UniProt P50909, I69V/P19G/T292S); assay: Tryptophan formation from L-serine and indole, kinetics of TmTrpB^triple; format: biochemical
T1 sequence (P50909 with tags, fused parts or gaps P19G/I69V/T292S): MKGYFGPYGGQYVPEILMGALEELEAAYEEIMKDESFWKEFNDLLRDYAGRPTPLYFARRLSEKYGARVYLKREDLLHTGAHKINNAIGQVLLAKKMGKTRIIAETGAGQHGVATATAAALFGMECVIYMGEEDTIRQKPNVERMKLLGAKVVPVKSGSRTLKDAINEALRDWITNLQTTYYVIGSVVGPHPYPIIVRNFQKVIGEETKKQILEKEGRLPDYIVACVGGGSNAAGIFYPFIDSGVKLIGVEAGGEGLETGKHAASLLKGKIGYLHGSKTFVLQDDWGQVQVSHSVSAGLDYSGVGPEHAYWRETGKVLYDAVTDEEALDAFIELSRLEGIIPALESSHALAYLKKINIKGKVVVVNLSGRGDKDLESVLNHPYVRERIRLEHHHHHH
Method: Kinetics and UV-Vis Spectroscopy. Data were collected between 550 and 250 nm on a UV1800 Shimadzu spectrophotometer (Shimadzu) using 0.25-20 μM of enzyme in 200 mM potassium phosphate (pH 8.0) in a quartz cuvette. Samples were incubated at 75° C. for >3 min to ensure a stable temperature was reached. PfTrpB activity (kcat) was measured by monitoring tryptophan formation at 290 nm using Δe290=1.89 mM^−1·cm^−1.
Cloning, expression, and purification of the different orthologs. The genes encoding AfTrpB (UNIPROT ID O28672), TmTrpB (UNIPROT ID P50909) and EcTrpB (UNIPROT ID P0A879) were obtained from IDT and cloned into pET22(b)+ using Gibson Assembly. Protein expression was carried out in E. coli BL21 E. cloni Express cells (Lucigen) by inoculating 10-mL Terrific Broth (with 100 μg/mL ampicillin (TBamp)) with a single colony and incubated over night at 37° C. and 250 rpm. These overnight cultures were used to scale up to 500-mL TBamp expression cultures, which were grown by shaking at 250 rpm and 37° C. for ˜3 h or until an OD600 of 0.8 was reached. […]
The next homolog, TmTrpB, was examined. […] The variants without the T292S mutation lacked this probative absorbance peak, but the decrease at 428 nm and concomitant increase at 350 nm are consistent with a similar, though less pronounced activation.

[2] = test system: Thermotoga maritima TrpB, wild type (literature); details: kinetics measured at 80° C., cited from earlier work

In the case of `c1ccc2[nH]ccc2c1` [indole], the kcat ([1]; 75° C.) is listed as 9.8 s⁻¹, the increase in kcat ([1]; with respect to wild type) is listed as 8 fold and the kcat [2] is listed as 4.2 s⁻¹. For the same molecule, the Km ([2]; read-out: KM indole) was 40 µM.
